# Assays:
# PANC-1 = test: Cytotoxicity against human PANC1 cells after 48 hrs by modified propidium iodide assay; type: functional, cell-based; conditions: PANC-1, 48 h
# NCI-H460 = test: Cytotoxicity against human H460 cells after 48 hrs by modified propidium iodide assay; type: functional, cell-based; conditions: NCI-H460, 48 h
# MCF-10A = test: Cytotoxicity against human MCF10A cells after 48 hrs by modified propidium iodide assay; type: cell-based
# Calu-1 = test: Cytotoxicity against human Calu1 cells after 48 hrs by modified propidium iodide assay; type: functional, cell-based; conditions: Calu-1, 48 h
# ACHN = test: Cytotoxicity against human ACHN cells after 48 hrs by modified propidium iodide assay; type: functional, cell-based
# HCT-116 = test: Cytotoxicity against human HCT116 cells after 48 hrs by modified propidium iodide assay; type: functional, cell-based; conditions: HCT-116, 48 h
compound,measurement,setting,value
CCCCCCCc1cc(OC(=O)c2c(O)cc(O)cc2CCCCCCC)cc(O)c1C(=O)O [PRASINIC ACID],IC50,PANC-1,8.5 µM
same,IC50,NCI-H460,9.1 µM
same,IC50,MCF-10A,> 30 µM
same,IC50,Calu-1,4.3 µM
same,IC50,ACHN,8.2 µM
same,IC50,HCT-116,7.8 µM
